Reference: patent US8604217B2, “Compound, a process for its preparation, a pharmaceutical composition, use of a compound, a method for modulating or regulating serine/threonine kinases and a serine/threonine kinases modulating agent” (Selvita S.A., priority 2009, dated 2013)

How the values were obtained:
PIM-1 = PIM-1 (Homo sapiens (Human), UniProt P11309); assay: Luminometric kinase assay for PIM1 kinase (Kinase-Glo); assay type: biochemical; settings: 1 μM ATP, 25 min at RT
Summary of the method: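 Kinase and substrate reacted in 8 mM MOPS/NaOH pH7.0, 0.2 mM EDTA, 2 mM MgCl2 with 1 μM ATP for 25 min at RT, compounds serially diluted from 1 μM. Remaining ATP read by Kinase-Glo luminescence; IC50 from variable-slope sigmoidal fit.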

[1] = system: human myelomonocytic, biphenotypic leukemia MV4-11 cells; assay: Growth inhibition test (MTS) on MV4-11 cells; assay type: cell-based; settings: Homo sapiens, MV4-11, 72 hours, read-out: MV-4-11 ED50
Summary of the method: MV4-

[2] = system: human chronic myelocytic leukemia K562 cells; assay: Growth inhibition test (MTS) on K562 cells; assay type: cell-based; settings: Homo sapiens, K562, 72 hours, read-out: K562 ED50
Experimental: Ten thousand cells of human chronic myelocytic leukemia K562 were inoculated into each well of a 96-well microplate (manufactured by Corning Corp.) using Iscove's MDM medium (culture medium) containing 10% fetal calf serum (FCS). Next day, a dimethyl sulfoxide (DMSO) solution of each test compound prepared in a concentration of 10 mmol/L was further diluted with culture medium to the desired concentrations (0.1, 0.5, 1, 2.5, 5 and 10 micromol/L), and the diluted solution was added to each well. The individual wells were further cultured in 5% carbon dioxide at 37° C. for 72 hours. After completion of the culture, 10 μl MTS (3-(4,5-Dimethyl-2-thiazolyl)-5-(carboxymethoxyphenyl)-2-(4-sulfophenyl)-2H-tetrazolium, inner salt assay (CellTiter96® AQueous One Solution Cell Proliferation Assay, Promega) was added to each well, and culturing was performed in 5% carbon dioxide at 37° C. for 2 hours. Using a microplate spectrophotometer (Synergy 2 multi-mode microplate reader (BioTek)), the absorbance of each well was measured at 490 nm. The value for cells not incorporated with a test compound was designated as 100%. By comparing these values with the absorbance difference obtained at the well in which each test compound was added, the cell viability (% viability) after treatment with the test compound was calculated.

[3] = system: human prostate adenocarcinoma PC3 cells; assay: Growth inhibition test (MTS) on PC3 cells; assay type: cell-based; settings: Homo sapiens, PC-3, 72 hours, read-out: PC-3 ED50
[4] = system: human hepatoma HepG2 cells; assay: Growth inhibition test (MTS) on HepG2 cells; assay type: cell-based; settings: 72 hours, read-out: HepG2 ED50
Summary of the method: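 HepG2 cells in DMEM with 10% FCS were exposed for 72 h at 37 °C, 5% CO2, to 0.1, 0.5, 1, 2.5, 5 and 10 micromol/L compound. MTS was then added for 2 h and absorbance read at 490 nm. % viability was calculated relative to untreated cells set at 100%.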

Sequence of PIM-1 (P11309 whole entry): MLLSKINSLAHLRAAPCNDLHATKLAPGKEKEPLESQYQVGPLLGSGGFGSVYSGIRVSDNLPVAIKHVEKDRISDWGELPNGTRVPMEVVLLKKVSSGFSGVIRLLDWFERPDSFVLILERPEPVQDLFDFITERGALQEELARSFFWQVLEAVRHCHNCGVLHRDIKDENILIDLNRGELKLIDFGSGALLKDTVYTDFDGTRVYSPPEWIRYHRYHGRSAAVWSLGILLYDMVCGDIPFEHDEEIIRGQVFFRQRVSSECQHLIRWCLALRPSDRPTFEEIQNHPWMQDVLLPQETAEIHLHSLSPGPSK

IC50 (PIM-1) [nM] | IC50 [1] [nM] | IC50 [2] [nM] | IC50 [3] [nM] | IC50 [4] [nM] | Structure (SMILES)
5.89 | 1030 | 7470 | 4900 | 2840 | NCCCNc1nc2c(Br)c(Br)c(Br)c(Br)c2[nH]1 [Compound 11, N-(3-aminopropyl)-4,5,6,7-tetrabromo-1H-benzo[d]imidazol-2-amine]
6.84 | 600 | 3050 | 2950 | 1850 | CC(C)n1c(N2CCNCC2)nc2c(Br)c(Br)c(Br)c(Br)c21 [Compound 359, 4,5,6,7-tetrabromo-1-isopropyl-2-(piperazin-1-yl)-1H-benzo[d]imidazole]
107 | 1300 | 2940 | 2500 | 1330 | Brc1c(Br)c(Br)c2c(nc(N3CCNCC3)n2Cc2ccccc2)c1Br [Compound 374, 1-benzyl-4,5,6,7-tetrabromo-2-(piperazin-1-yl)-1H-benzo[d]imidazole]
39.1 | 6150 | – | 6660 | 4200 | CN(C)C1CCCN(c2nc3c(Br)c(Br)c(Br)c(Br)c3[nH]2)C1 (stereo not shown) [Compound 378, 1-(4,5,6,7-tetrabromo-1H-benzo[d]imidazol-2-yl)-N,N-dimethylpiperidin-3-amine]
6.55 | 550 | 3650 | 2100 | 1310 | CCn1c(N2CCNCC2)nc2c(Br)c(Br)c(Br)c(Br)c21 [Compound 416, 4,5,6,7-tetrabromo-1-ethyl-2-(piperazin-1-yl)-1H-benzo[d]imidazole]
9.36 | 560 | 4960 | 2570 | 1850 | CCCn1c(N2CCNCC2)nc2c(Br)c(Br)c(Br)c(Br)c21 [Compound 417, 4,5,6,7-tetrabromo-2-(piperazin-1-yl)-1-propyl-1H-benzo[d]imidazole]
> 1000 | > 10000 | > 10000 | > 10000 | > 10000 | CN(C)c1nc2c(Br)c(Br)c(Br)c(Br)c2n1CC(=O)O [Compound K66, 1-carboxymethyl-2-dimethylamino-4,5,6,7-tetrabromo-benzimidazole, reference compound]
31 | 3150 | > 10000 | > 10000 | > 10000 | CN(C)c1nc2c(Br)c(Br)c(Br)c(Br)c2[nH]1 [DMAT, 2-dimethylamino-4,5,6,7-tetrabromo-1H-benzimidazole, reference compound]

The next lines start with the compound.

Structure (SMILES) | IC50 (PIM-1) [nM] | IC50 [1] [nM] | IC50 [2] [nM] | IC50 [3] [nM] | IC50 [4] [nM]
Brc1c(Br)c(Br)c2[nH]c(N3CCNCC3)nc2c1Br [Compound 20, 4,5,6,7-tetrabromo-2-(piperazin-1-yl)-1H-benzo[d]imidazole] | 16.9 | 480 | 6460 | 5140 | 2860
NC1CCC(Nc2nc3c(Br)c(Br)c(Br)c(Br)c3[nH]2)CC1 (stereo not shown) [Compound 87, N1-(4,5,6,7-tetrabromo-1H-benzo[d]imidazol-2-yl)cyclohexane-1,4-diamine] | 15.1 | 4200 | 5590 | 5650 | 3800
NC1CCCC(Nc2nc3c(Br)c(Br)c(Br)c(Br)c3[nH]2)C1 (stereo not shown) [Compound 336, N1-(4,5,6,7-tetrabromo-1H-benzo[d]imidazol-2-yl)cyclohexane-1,3-diamine] | 18.8 | 2600 | 6880 | 8400 | 4870
Brc1c(Br)c(Br)c2[nH]c(N[C@H]3COC[C@@H]3N3CCCC3)nc2c1Br [Compound 337, 4,5,6,7-tetrabromo-N-((3R,4R)-tetrahydro-4-(pyrrolidin-1-yl)furan-3-yl)-1H-benzo[d]imidazol-2-amine] | 25.6 | 2450 | 3020 | 3830 | 2400
Brc1c(Br)c(Br)c2[nH]c(N[C@H]3COC[C@@H]3N3CCCCC3)nc2c1Br [Compound 338, 4,5,6,7-tetrabromo-N-((3R,4R)-tetrahydro-4-(piperidin-1-yl)furan-3-yl)-1H-benzo[d]imidazol-2-amine] | 21.7 | 3300 | 5030 | 4760 | 2760
NCc1ccccc1CNc1nc2c(Br)c(Br)c(Br)c(Br)c2[nH]1 [Compound 349, N-(2-(aminomethyl)benzyl)-4,5,6,7-tetrabromo-1H-benzo[d]imidazol-2-amine] | 69.8 | 1580 | 6510 | 4700 | 2510
CN1CCCC(Nc2nc3c(Br)c(Br)c(Br)c(Br)c3[nH]2)CC1 (stereo not shown) [Compound 358, 4,5,6,7-tetrabromo-N-(1-methylazepan-4-yl)-1H-benzo[d]imidazol-2-amine] | 5.82 | 1000 | 6640 | 6200 | 2650
C[C@@H]1CN(c2nc3c(Br)c(Br)c(Br)c(Br)c3[nH]2)[C@@H](C)CN1 [Compound 364, 4,5,6,7-tetrabromo-2-((2S,5R)-2,5-dimethylpiperazin-1-yl)-1H-benzo[d]imidazole] | 10.2 | 1970 | 5210 | 4580 | 2330
Brc1c(Br)c(Br)c2[nH]c(NC3CCCNCC3)nc2c1Br (stereo not shown) [Compound 366, N-(azepan-4-yl)-4,5,6,7-tetrabromo-1H-benzo[d]imidazol-2-amine] | 3.5 | 600 | 5040 | 5600 | 1700
CC(C)NC1CCCCC1Nc1nc2c(Br)c(Br)c(Br)c(Br)c2[nH]1 (stereo not shown) [Compound 369, N1-(4,5,6,7-tetrabromo-1H-benzo[d]imidazol-2-yl)-N2-isopropylcyclohexane-1,2-diamine] | 41.1 | 1300 | 3530 | 2450 | 1400
Brc1c(Br)c(Br)c2[nH]c(N3CCC(C4CCNCC4)CC3)nc2c1Br [Compound 386, 4,5,6,7-tetrabromo-2-(4-(piperidin-4-yl)piperidin-1-yl)-1H-benzo[d]imidazole] | 58 | 3310 | 2860 | 2770 | –
CCCCCNC1CCCCC1Nc1nc2c(Br)c(Br)c(Br)c(Br)c2[nH]1 (stereo not shown) [Compound 413, N1-(4,5,6,7-tetrabromo-1H-benzo[d]imidazol-2-yl)-N2-pentylcyclohexane-1,2-diamine] | 119 | 1550 | 2730 | 1450 | 1360
Brc1c(Br)c(Br)c2[nH]c(NC3CCNCC3)nc2c1Br [Compound 435, 4,5,6,7-tetrabromo-N-(piperidin-4-yl)-1H-benzo[d]imidazol-2-amine] | 6.68 | 680 | 5640 | 5790 | –
CCn1c(N2CCN(CCN3CCNCC3)CC2)nc2c(Br)c(Br)c(Br)c(Br)c21 [Compound 441, 4,5,6,7-tetrabromo-1-ethyl-2-(4-(2-(piperazin-1-yl)ethyl)piperazin-1-yl)-1H-benzo[d]imidazole] | 65 | 700 | 1650 | 1600 | 700
CCn1c(N2CCN(CCCN3CCOCC3)CC2)nc2c(Br)c(Br)c(Br)c(Br)c21 [Compound 450] | 125 | 600 | 2900 | 3600 | 1500
Brc1c(Br)c(Br)c2c(Br)n[nH]c2c1Br [Compound K64, 3,4,5,6,7-pentabromo-1H-indazole, reference compound] | > 1000 | > 10000 | > 10000 | > 10000 | > 10000
Brc1c(Br)c(Br)c2[nH]nnc2c1Br [TBB, 4,5,6,7-tetrabromo-1Hbenzotriazole, reference compound] | > 1000 | > 10000 | > 10000 | > 10000 | > 10000
Brc1c(Br)c(Br)c2[nH]cnc2c1Br [TBI, 4,5,6,7-tetrabromo-1H-benzimidazole, reference compound] | 102 | > 10000 | > 10000 | > 10000 | > 10000
